Test results reported in patent US20230063230A1, “NURR1 RECEPTOR MODULATORS” (priority 2019, published 2023).

Key:
[1] = target: T1, Nurr1 LBD fused to Gal4 DBD (Homo sapiens, UniProt P43354); assay: Luciferase reporter assay; format: cell-based
T1 construct: expressed in transfected cells; host or cells: SK-N-BE(2)C cells (ATCC CRL-2268)
Description: In particular, direct binding to the Nurr1 LBD in vitro was measured using microscale thermophoresis (MST) and surface plasmon resonance (SPR), and efficacy in cells was measured using a lucifierase reporter assay (Nurr1 LBD fused to Gal4 DBD, measuring effect on luciferase activity) and target gene transcription assays (full length Nurr1, measuring mRNA levels of specific Nurr1 target genes). These assays pointed to a subset of compounds that bind directly to the Nurr1 LBD (by MST and/or SPR) and produce >1.5-fold changes in Nurr1 activity in cells (by Luc and/or TGT assays) (Table 1, Table 2).
Luciferase Reporter Assays. pBIND—Nurr1 is generated by cloning Nurr1 LBD (a.a. 328-598 of human Nurr1) into pBIND vector (Promega E2440). The pBIND vector also contains a Renilla luciferase gene under the control of the SV40 Promoter that can be used to normalize the transfection efficiency. The firefly luciferase reporter pG5-Luc vector (Promega E2440) contains 5 repeats of GAL4 UAS (upstream activation sequence) upstream of luciferase gene. SK—N— BE(2)C cells (ATCC CRL-2268) were transiently transfected with pBIND—Nurr1 and pG5-Luc by FuGENE HD (Promega, E2311) in 96-well-plate with the seeding density of 200,000 cells/mL. […] After 18 hours, the luminescence of Firefly and Renilla luciferase were measured by Dual Luciferase Reporter Assay System (Promega E1960).

[2] = tested on: Nurr1 target genes; assay: Transcription of Nurr1 target genes in live zebrafish; format: in vivo
Description: (§1) Dopamine is broken down inside the neurons that produce it, generating oxygen free-radicals and other potentially damaging molecules (53). Among the reactive metabolites is 5,6-dihydroxyindole (DHI), a compound that undergoes spontaneous oxidation to a reactive quinone, which oligomerizes to form a polymer (neuromelanin) of unknown function. This polymer accounts for the dark appearance of nigrostriatal neurons in the normal adult CNS (54,55). Dopamine is also a central player in stress and addiction (3). It is clear that dopamine levels need to be tightly regulated in the CNS. Nurr1 controls all the genes required for dopamine synthesis, but its regulation is poorly understood as the receptor lacks both the canonical NR ligand binding pocket and the classic NR co-regulator binding surface (33). We postulated that Nurr1 might be regulated by dopamine itself, or one of its metabolites, and investigated this possibility using a combination of biophysical and structural techniques. […] Identifying stable analogs of DHI will enable more detailed studies of this intriguing biology.

[3] = target: T2, Nurr1 LBD (Homo sapiens, UniProt P43354); assay: Differential scanning fluorimetry (DSF); format: binding
Description: as §1

[4] = target: T2, Nurr1 LBD; assay: Surface plasmon resonance (SPR) assay; format: binding
Description: Surface Plasmon Resonance Assays. Data were collected using Biacore T200 (GE) instrument at a flow rate of 30 μL/min and at a temperature of 25° C. The running buffer was 25 mM HEPES, pH 7.4, 150 mM NaCl, 0.05% Surfactant Tween 20, and 2% DMSO. The biotinylated Nurr1 LBD was immobilized on a sensor chip SA (GE Healthcare Life Sciences; product number 29104992) or at 6000-7000 RU, or a CAP chip (GE Healthcare Life Sciences; product number 28920234) at 1500-2000 RU. Data collection was performed with kinetic titration mode. Analytes dilutions were carried out starting from DMSO stocks (10 mM). Analytes dissolved in DMSO were added to 1.02x running buffer without DMSO to yield a final DMSO concentration of 2%. When using CAP chip, surface regeneration was performed between each titration curve using 6 M guanidine.HCl+0.25 M NaOH regeneration solution followed by re-immobilization of Nurr1 (as described in the manufacturer's regeneration protocol). Data processing included double referencing (i.e., reference flow cell and buffer subtracted using a buffer injection of appropriate contact time for the given injection). Solvent correction was performed using a standard curve in a range of 1.8-2.3% DMSO.

[5] = target: T3, Nurr1 ligand binding domain (Homo sapiens, UniProt P43354); assay: Crystal structures of ligands covalently bound to Nurr1; conditions: crystal structure, Cys566
Description: First, we used the Nurr1 ligand binding domain (LBD) and a disulfide-trapping screen to identify 50 compounds that conjugate directly to Nurr1, undergoing a disulfide exchange reaction with Cys566.

[6] = target: T4, Nurr1 (Homo sapiens, UniProt P43354); assay: Binding SPR
[7] = tested on: Nurr1 target genes in MN9D cells; assay: MN9D target gene transcription assay; format: cell-based; conditions: gene expression normalized to Hprt
Description: MN9D Assays. MN9Dtet-on cells were treated with 10 μM of each compound or DMSO (vehicle control) for 6 to 24 hrs. Total RNAs were isolated using Quick-RNA miniprep Plus (ZYMO Research, cat#: R^1058), and were subsequently reverse transcribed using High Capacity cDNA Reverse Transcription kit (Applied Biosystems, cat#: 4368814). SYBR Green quantitative real-time PCR analysis was performed using CFX96 Real Time system (BioRad). The following primer pairs were used for qPCR: Nurr1; 5′-[…]-3′ (SEQ ID NO:5) and 5′-[…]-3′ (SEQ ID NO:6), Pitx3; 5′-GCAACTGGCCGCCCAAGG-3′ (SEQ ID NO:7) and 5′-AGGCCCCACGTTGACCGA-3′ (SEQ ID NO:8), VMAT2; 5′-[…]-3′ (SEQ ID NO:9) and 5′-[…]-3′ (SEQ ID NO:10), TH; 5′-[…]-3′ (SEQ ID NO:11) and 5′-[…]-3′ (SEQ ID NO:12), HPRT; 5′-TGGGAGGCCATCACATTGT-3′ (SEQ ID NO:13) and 5′-[…]-3′ (SEQ ID NO:14). The levels of gene expression were normalized to the level of housekeeping gene (HPRT) expression.

[8] = target: T4, Nurr1; assay: Binding MST
[9] = target: T3, Nurr1 ligand binding domain; assay: Microscale thermophoresis (MST) binding assay; conditions: measured by microscale thermophoresis
Description: Microscale thermophoresis (MST) assays. Data were collected using the Nanotemper Monolith NT.115 at a temperature of 25° C. The MST buffer used in each experiment was 25 mM HEPES (Sigma Aldrich), pH 7.4, 150 mM NaCl (Alfa Aesar), and 0.02% Pluronic (Sigma Aldrich). All samples were prepared using Protein LoBind tubes or deepwell plates (Eppendorf). The His-tagged Nurr1 was labeled with RED-tris-NTA dye (NT-647) according to the kit's protocol (Nanotemper). Dilutions of each ligand were carried out starting from DMSO stocks of 10 mM in DMSO. The analyte solutions in DMSO were added to aliquots of MST buffer to yield a DMSO concentration of 4%.
Two types of experiments were performed: endpoint and binding affinity assays. For the endpoint assays, equal amounts of the ligand solution and labeled Nurr1 were mixed to yield the final concentrations: 50 nM Nurr1, 25 nM RED-tris-NTA dye, 2% DMSO, and either 25 μM or 100 μM of the desired ligand in the MST buffer. […]
The Monolith NT.115 settings for all samples were 40% excitation power and 40% MST power. The initial fluorescence was recorded for 3 seconds and the thermophoresis fluorescence response was recorded for 20 seconds. […] Screening Analysis software (Nanotemper) was used to normalize the fluorescent response signals to the sample's initial fluorescence. […]

[10] = tested on: TH in SHSY5Y; assay: qPCR SHSY5Y TH; format: cell-based; conditions: Homo sapiens, SH-SY5Y, cpds tested at 10 μM
[11] = tested on: Vmat2 in MN9D; assay: cells; format: cell-based; conditions: cpds tested at 10 μM, analogs of compound 87, read-out: qPCR MN9D Vmat2
[12] = tested on: Pitx3 in MN9D; assay: qPCR MN9D Pitx3; format: cell-based; conditions: cpds tested at 10 μM, analogs of compound 87
[13] = tested on: Nurr1 in MN9D; assay: qPCR MN9D Nurr1; format: cell-based; conditions: cpds tested at 10 μM, analogs of compound 87
[14] = tested on: Th in MN9D; assay: qPCR MN9D Th; format: cell-based; conditions: cpds tested at 10 μM, analogs of compound 87

T2 sequence (P43354 360-595 limits assumed): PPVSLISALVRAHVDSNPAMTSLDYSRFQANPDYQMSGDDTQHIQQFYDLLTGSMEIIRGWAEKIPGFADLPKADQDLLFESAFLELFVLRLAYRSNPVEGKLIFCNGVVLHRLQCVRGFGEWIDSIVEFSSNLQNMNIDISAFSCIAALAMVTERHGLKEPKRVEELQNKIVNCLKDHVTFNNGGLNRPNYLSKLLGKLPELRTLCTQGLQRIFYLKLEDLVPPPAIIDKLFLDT
T4 sequence (P43354 360-595 limits assumed): as above
T3 sequence (P43354 360-595 limits assumed): as above
T1 sequence (P43354 328-598): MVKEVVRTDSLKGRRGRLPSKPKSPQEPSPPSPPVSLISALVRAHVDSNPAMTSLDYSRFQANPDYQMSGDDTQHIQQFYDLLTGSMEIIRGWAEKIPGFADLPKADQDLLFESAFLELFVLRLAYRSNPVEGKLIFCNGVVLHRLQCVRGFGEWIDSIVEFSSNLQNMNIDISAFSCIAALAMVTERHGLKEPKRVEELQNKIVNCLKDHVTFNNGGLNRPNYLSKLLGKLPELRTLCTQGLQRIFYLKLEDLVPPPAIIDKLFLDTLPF

For `Oc1cc2cc[nH]c2cc1O` [DHI, 5,6-dihydroxyindole], the “Nurr1 activity in the reporter assay” value [1] was “stimulating Nurr1 activity”, the “Expression of VMAT” value ([2]; acute exposure (6 h, data not shown)) was “drives the expression” and the “Transcription of Nurr1 target genes in live zebrafish” value ([2]; in vivo) was “driving transcription of Nurr1 target genes”. The “Expression of TH” value ([2]; longer exposure (24 h)) was “drives the expression”, the “Stabilization of the Nurr1 LBD, melting temperature” value [3] was “increasing the melting temperature by one degree” and the Off-rate [4] was “very slow off-rate”. The Kd ([4]; read-out: Kd for binding to Nurr1) was 5 µM and the “Covalent binding to Nurr1” value [5] was “reversible covalent adduct with Cys566”.
With `O=C(COc1ccc(Cl)c(Cl)c1)NCCS` [SP 85, 2-(3,4-dichlorophenoxy)-N-(2-mercaptoethyl)acetamide] the “Binding SPR” value ([6]; analogs of compound 85) was “+”, the “Transcription of Nurr1 target genes in MN9D cells” value [7] was “stimulate the transcription of Nurr1 target genes” and the “Binding MST” value ([8]; analogs of compound 85) was “+++”. The “Binding to the Nurr1 ligand binding domain, affinity” value [9] was “high nanomolar affinity”.
With `CC(C)(NC(=O)c1cc(Cl)cc(Cl)c1)c1cn(CCS)nn1` [SP 87, 3,5-dichloro-N-(2-(1-(2-mercaptoethyl)-1H-1,2,3-triazol-4-yl)propan-2-yl)benzamide] the “Binding SPR” value ([6]; analogs of compound 87) was “+”, the “Transcription of Nurr1 target genes in MN9D cells” value [7] was “stimulate the transcription of Nurr1 target genes” and the “Binding MST” value ([8]; analogs of compound 87) was “+++”. For the same compound, the fold induction at 10 µM [10] was greater than 1.5, the “Binding to the Nurr1 ligand binding domain, affinity” value [9] was “high nanomolar affinity” and the fold induction at 10 µM [11] was greater than 4.
Compound `CC(=O)SCCn1cc(C(C)(C)NC(=O)c2ccc(Cl)c(Cl)c2)nn1` [SP 171, S-2-(4-(2-(3,4-dichlorobenzamido)propan-2-yl)-1H-1,2,3-triazol-1-yl)ethyl ethanethioate] has a fold induction at 10 µM [12] greater than 4.
`CC(=O)SCCn1cc(C(C)(C)NC(=O)c2ccc3ocnc3c2)nn1` [SP 195, S-2-(4-(2-(benzo[d]oxazole-5-carboxamido)propan-2-yl)-1H-1,2,3-triazol-1-yl)ethyl ethanethioate] gave a fold induction at 10 µM [13] greater than 1.5 and a fold induction at 10 µM [12] greater than 1.5.
Work on `CC(=O)SCCn1cc(C(C)(C)NC(=O)c2cccc(C#N)c2)nn1` [SP 196, S-2-(4-(2-(3-cyanobenzamido)propan-2-yl)-1H-1,2,3-triazol-1-yl)ethyl ethanethioate] yielded a fold induction at 10 µM [13] greater than 4 and a fold induction at 10 µM [14] greater than 1.5.
`NCCc1ccc(O)c(O)c1` [dopamine] was tested, and the “Stabilization of the Nurr1 LBD, melting temperature” value [3] was “not”.
